Experimental findings from ChEMBL document CHEMBL4229438, “N-Acylhydrazones as drugs” (Bioorg Med Chem Lett, 2018) are described below.

Molecules are shown by their SMILES.

A short description of data set [1]: Half life in patient with solid tumor at 230 mg/m2, iv treated for 30 mins by HPLC-MS analysis. In kind it is ADME, organism-based. The note with it: human, in vivo.
Data set [2] can be described thus: Stability in rat plasma assessed as parent compound remaining at 100 uM after 10 hrs by LC-MS analysis. In kind it is ADME, cell-free. The note with it: read-out: Stability.
The test system of a further data set is Thoracic aorta. The data set can be described thus: Vasodilatory activity in Wistar rat thoracic aortic rings assessed as inhibition of noradrenaline-induced contraction. In kind it is functional, tissue-based.
The subject of data set [3] is HL-60. The data set can be described thus: Cytotoxicity against human HL60 cells by MTT assay. In kind it is functional, cell-based.
Data set [4] addresses Muscarinic acetylcholine receptor M3 (Rattus norvegicus, UniProt P08483). The data set can be described thus: Agonist activity at endothelial M3 receptor in Wistar-Kyoto rat thoracic aortic rings assessed as inhibition of phenylephrine-induced contraction. In kind it is functional.
Data set [5] concerns the target T1, Caspase-3 (Mus musculus) (UniProt P70677).
T1 sequence (whole entry): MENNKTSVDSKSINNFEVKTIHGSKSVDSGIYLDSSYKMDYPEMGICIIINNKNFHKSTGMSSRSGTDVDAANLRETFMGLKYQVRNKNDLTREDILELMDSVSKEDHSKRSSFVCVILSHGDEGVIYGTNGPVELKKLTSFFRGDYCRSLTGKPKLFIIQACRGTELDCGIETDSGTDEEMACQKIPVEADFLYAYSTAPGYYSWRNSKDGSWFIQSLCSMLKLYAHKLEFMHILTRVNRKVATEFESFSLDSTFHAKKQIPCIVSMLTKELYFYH
The note with it: 2.5 uM.
Description: Activation of procaspase-3 in mouse 3LL cells assessed as increase in cell death by measuring combination index at 2.5 uM after 24 hrs in presence of 250 nM doxorubucin by alamar blue assay

In data set [6] the target is T1, Caspase-3 (Mus musculus). Particulars: 4T1, 2.5 uM.
Description: Activation of procaspase-3 in mouse 4T1 cells assessed as increase in cell death by measuring combination index at 2.5 uM after 24 hrs in presence of 10 nM doxorubucin by alamar blue assay
In data set [7] the target is T1, Caspase-3 (Mus musculus). The note with it: EL4, 5 uM.
Description: Activation of procaspase-3 in mouse EL4 cells assessed as increase in cell death by measuring combination index at 5 uM after 24 hrs in presence of 100 nM doxorubucin by alamar blue assay
The target of data set [8] is T1, Caspase-3 (Mus musculus). Particulars: 5 uM.
Description: Activation of procaspase-3 in mouse K7M2 cells assessed as increase in cell death by measuring combination index at 5 uM after 24 hrs in presence of 250 nM doxorubucin by alamar blue assay
In data set [9] the target is T1, Caspase-3 (Mus musculus). The note with it: 7.5 uM.
Description: Activation of procaspase-3 in mouse B16F10 cells assessed as increase in cell death by measuring combination index at 7.5 uM after 24 hrs in presence of 25 nM doxorubucin by alamar blue assay
Data set [10] addresses T1, Caspase-3 (Mus musculus). Particulars: 2.5 uM. The source holds these as a separate data set.
Description: Activation of procaspase-3 in mouse K7M2 cells assessed as increase in cell death by measuring combination index at 2.5 uM after 24 hrs in presence of 100 nM doxorubucin by alamar blue assay
The target in data set [11] is T1, Caspase-3 (Mus musculus). The note with it: 7.5 uM. This is another data set of the same source.
Description: Activation of procaspase-3 in mouse B16F10 cells assessed as increase in cell death by measuring combination index at 7.5 uM after 24 hrs in presence of 10 nM doxorubucin by alamar blue assay
Data set [12] deals with T1, Caspase-3 (Mus musculus). Particulars: EL4, 5 uM. The source holds these as a separate data set.
Description: Activation of procaspase-3 in mouse EL4 cells assessed as increase in cell death by measuring combination index at 5 uM after 24 hrs in presence of 1500 nM doxorubucin by alamar blue assay
In data set [13] the target is T1, Caspase-3 (Mus musculus). Particulars: EL4, 10 uM.
Description: Activation of procaspase-3 in mouse EL4 cells assessed as increase in cell death by measuring combination index at 10 uM after 24 hrs in presence of 500 nM doxorubucin by alamar blue assay
Data set [14] deals with T1, Caspase-3 (Mus musculus). The note with it: 4T1, 5 uM.
Description: Activation of procaspase-3 in mouse 4T1 cells assessed as increase in cell death by measuring combination index at 5 uM after 24 hrs in presence of 50 nM doxorubucin by alamar blue assay
Data set [15] has as its target T1, Caspase-3 (Mus musculus). The note with it: 15 uM.
Description: Activation of procaspase-3 in mouse B16F10 cells assessed as increase in cell death by measuring combination index at 15 uM after 24 hrs in presence of 100 nM doxorubucin by alamar blue assay
Data set [16] concerns the target T1, Caspase-3 (Mus musculus). Particulars: 4T1, 5 uM. The source holds these as a separate data set.
Description: Activation of procaspase-3 in mouse 4T1 cells assessed as increase in cell death by measuring combination index at 5 uM after 24 hrs in presence of 10 nM doxorubucin by alamar blue assay
The target in data set [17] is T1, Caspase-3 (Mus musculus). Particulars: 7.5 uM. This is another data set of the same source.
Description: Activation of procaspase-3 in mouse 3LL cells assessed as increase in cell death by measuring combination index at 7.5 uM after 24 hrs in presence of 25 nM doxorubucin by alamar blue assay
For data set [18], the target named is T1, Caspase-3 (Mus musculus). Particulars: EL4, 10 uM. This is another data set of the same source.
Description: Activation of procaspase-3 in mouse EL4 cells assessed as increase in cell death by measuring combination index at 10 uM after 24 hrs in presence of 1000 nM doxorubucin by alamar blue assay
Data set [19] deals with T1, Caspase-3 (Mus musculus). The note with it: 2.5 uM. The source holds these as a separate data set.
Description: Activation of procaspase-3 in mouse K7M2 cells assessed as increase in cell death by measuring combination index at 2.5 uM after 24 hrs in presence of 50 nM doxorubucin by alamar blue assay
Data set [20] addresses T1, Caspase-3 (Mus musculus). The note with it: 4T1, 5 uM. This is another data set of the same source.
Description: Activation of procaspase-3 in mouse 4T1 cells assessed as increase in cell death by measuring combination index at 5 uM after 24 hrs in presence of 25 nM doxorubucin by alamar blue assay
Data set [21] concerns the target T1, Caspase-3 (Mus musculus). Particulars: 2.5 uM. This is another data set of the same source.
Description: Activation of procaspase-3 in mouse K7M2 cells assessed as increase in cell death by measuring combination index at 2.5 uM after 24 hrs in presence of 25 nM doxorubucin by alamar blue assay
For data set [22], the target named is T1, Caspase-3 (Mus musculus). Particulars: 15 uM. The source holds these as a separate data set.
Description: Activation of procaspase-3 in mouse B16F10 cells assessed as increase in cell death by measuring combination index at 15 uM after 24 hrs in presence of 25 nM doxorubucin by alamar blue assay
Data set [23] has as its target T1, Caspase-3 (Mus musculus). Particulars: 2.5 uM. The source holds these as a separate data set.
Description: Activation of procaspase-3 in mouse K7M2 cells assessed as increase in cell death by measuring combination index at 2.5 uM after 24 hrs in presence of 250 nM doxorubucin by alamar blue assay
For data set [24], the target named is T1, Caspase-3 (Mus musculus). The note with it: 2.5 uM. The source holds these as a separate data set.
Description: Activation of procaspase-3 in mouse 3LL cells assessed as increase in cell death by measuring combination index at 2.5 uM after 24 hrs in presence of 25 nM doxorubucin by alamar blue assay
Data set [25] addresses T1, Caspase-3 (Mus musculus). The note with it: 7.5 uM. This is another data set of the same source.
Description: Activation of procaspase-3 in mouse 3LL cells assessed as increase in cell death by measuring combination index at 7.5 uM after 24 hrs in presence of 100 nM doxorubucin by alamar blue assay
Data set [26] addresses T1, Caspase-3 (Mus musculus). Particulars: 4T1, 2.5 uM. The source holds these as a separate data set.
Description: Activation of procaspase-3 in mouse 4T1 cells assessed as increase in cell death by measuring combination index at 2.5 uM after 24 hrs in presence of 250 nM doxorubucin by alamar blue assay
Data set [27] has as its target T1, Caspase-3 (Mus musculus). The note with it: 7.5 uM. The source holds these as a separate data set.
Description: Activation of procaspase-3 in mouse 3LL cells assessed as increase in cell death by measuring combination index at 7.5 uM after 24 hrs in presence of 10 nM doxorubucin by alamar blue assay
Data set [28] deals with T1, Caspase-3 (Mus musculus). The note with it: EL4, 10 uM. This is another data set of the same source.
Description: Activation of procaspase-3 in mouse EL4 cells assessed as increase in cell death by measuring combination index at 10 uM after 24 hrs in presence of 1500 nM doxorubucin by alamar blue assay
In data set [29] the target is T1, Caspase-3 (Mus musculus). Particulars: 4T1, 2.5 uM. This is another data set of the same source.
Description: Activation of procaspase-3 in mouse 4T1 cells assessed as increase in cell death by measuring combination index at 2.5 uM after 24 hrs in presence of 100 nM doxorubucin by alamar blue assay
Data set [30] concerns the target T1, Caspase-3 (Mus musculus). Particulars: 7.5 uM. The source holds these as a separate data set.
Description: Activation of procaspase-3 in mouse B16F10 cells assessed as increase in cell death by measuring combination index at 7.5 uM after 24 hrs in presence of 50 nM doxorubucin by alamar blue assay
In data set [31] the target is T1, Caspase-3 (Mus musculus). Particulars: 4T1, 5 uM. The source holds these as a separate data set.
Description: Activation of procaspase-3 in mouse 4T1 cells assessed as increase in cell death by measuring combination index at 5 uM after 24 hrs in presence of 100 nM doxorubucin by alamar blue assay
The target of data set [32] is T1, Caspase-3 (Mus musculus). Particulars: 15 uM. The source holds these as a separate data set.
Description: Activation of procaspase-3 in mouse B16F10 cells assessed as increase in cell death by measuring combination index at 15 uM after 24 hrs in presence of 250 nM doxorubucin by alamar blue assay
Data set [33] concerns the target T1, Caspase-3 (Mus musculus). The note with it: EL4, 5 uM. The source holds these as a separate data set.
Description: Activation of procaspase-3 in mouse EL4 cells assessed as increase in cell death by measuring combination index at 5 uM after 24 hrs in presence of 1000 nM doxorubucin by alamar blue assay
The target of data set [34] is T1, Caspase-3 (Mus musculus). The note with it: 4T1, 2.5 uM. This is another data set of the same source.
Description: Activation of procaspase-3 in mouse 4T1 cells assessed as increase in cell death by measuring combination index at 2.5 uM after 24 hrs in presence of 50 nM doxorubucin by alamar blue assay
For data set [35], the target named is T1, Caspase-3 (Mus musculus). The note with it: 5 uM. The source holds these as a separate data set.
Description: Activation of procaspase-3 in mouse K7M2 cells assessed as increase in cell death by measuring combination index at 5 uM after 24 hrs in presence of 50 nM doxorubucin by alamar blue assay
For data set [36], the target named is T1, Caspase-3 (Mus musculus). Particulars: 15 uM. The source holds these as a separate data set.
Description: Activation of procaspase-3 in mouse B16F10 cells assessed as increase in cell death by measuring combination index at 15 uM after 24 hrs in presence of 10 nM doxorubucin by alamar blue assay
The target of data set [37] is T1, Caspase-3 (Mus musculus). The note with it: 7.5 uM. The source holds these as a separate data set.
Description: Activation of procaspase-3 in mouse B16F10 cells assessed as increase in cell death by measuring combination index at 7.5 uM after 24 hrs in presence of 250 nM doxorubucin by alamar blue assay
Data set [38] concerns the target T1, Caspase-3 (Mus musculus). Particulars: 4T1, 5 uM. The source holds these as a separate data set.
Description: Activation of procaspase-3 in mouse 4T1 cells assessed as increase in cell death by measuring combination index at 5 uM after 24 hrs in presence of 250 nM doxorubucin by alamar blue assay
Data set [39] deals with T1, Caspase-3 (Mus musculus). Particulars: 7.5 uM. The source holds these as a separate data set.
Description: Activation of procaspase-3 in mouse B16F10 cells assessed as increase in cell death by measuring combination index at 7.5 uM after 24 hrs in presence of 100 nM doxorubucin by alamar blue assay
Data set [40] addresses T1, Caspase-3 (Mus musculus). Particulars: 2.5 uM. The source holds these as a separate data set.
Description: Activation of procaspase-3 in mouse 3LL cells assessed as increase in cell death by measuring combination index at 2.5 uM after 24 hrs in presence of 50 nM doxorubucin by alamar blue assay
Data set [41] concerns the target T1, Caspase-3 (Mus musculus). The note with it: EL4, 10 uM. This is another data set of the same source.
Description: Activation of procaspase-3 in mouse EL4 cells assessed as increase in cell death by measuring combination index at 10 uM after 24 hrs in presence of 100 nM doxorubucin by alamar blue assay
For data set [42], the target named is T1, Caspase-3 (Mus musculus). Particulars: 5 uM. The source holds these as a separate data set.
Description: Activation of procaspase-3 in mouse K7M2 cells assessed as increase in cell death by measuring combination index at 5 uM after 24 hrs in presence of 25 nM doxorubucin by alamar blue assay
In data set [43] the target is T1, Caspase-3 (Mus musculus). Particulars: 7.5 uM. The source holds these as a separate data set.
Description: Activation of procaspase-3 in mouse 3LL cells assessed as increase in cell death by measuring combination index at 7.5 uM after 24 hrs in presence of 50 nM doxorubucin by alamar blue assay
Data set [44] deals with T1, Caspase-3 (Mus musculus). Particulars: 15 uM. The source holds these as a separate data set.
Description: Activation of procaspase-3 in mouse B16F10 cells assessed as increase in cell death by measuring combination index at 15 uM after 24 hrs in presence of 50 nM doxorubucin by alamar blue assay
For data set [45], the target named is T1, Caspase-3 (Mus musculus). The note with it: 2.5 uM. The source holds these as a separate data set.
Description: Activation of procaspase-3 in mouse 3LL cells assessed as increase in cell death by measuring combination index at 2.5 uM after 24 hrs in presence of 100 nM doxorubucin by alamar blue assay
Data set [46] concerns the target T1, Caspase-3 (Mus musculus). Particulars: 4T1, 2.5 uM. The source holds these as a separate data set.
Description: Activation of procaspase-3 in mouse 4T1 cells assessed as increase in cell death by measuring combination index at 2.5 uM after 24 hrs in presence of 25 nM doxorubucin by alamar blue assay
Data set [47] addresses T1, Caspase-3 (Mus musculus). Particulars: EL4, 5 uM. This is another data set of the same source.
Description: Activation of procaspase-3 in mouse EL4 cells assessed as increase in cell death by measuring combination index at 5 uM after 24 hrs in presence of 500 nM doxorubucin by alamar blue assay
The target in data set [48] is T1, Caspase-3 (Mus musculus). Particulars: 2.5 uM. The source holds these as a separate data set.
Description: Activation of procaspase-3 in mouse 3LL cells assessed as increase in cell death by measuring combination index at 2.5 uM after 24 hrs in presence of 10 nM doxorubucin by alamar blue assay
Data set [49] concerns the target T1, Caspase-3 (Mus musculus). Particulars: EL4, 5 uM. This is another data set of the same source.
Description: Activation of procaspase-3 in mouse EL4 cells assessed as increase in cell death by measuring combination index at 5 uM after 24 hrs in presence of 2500 nM doxorubucin by alamar blue assay
Data set [50] concerns the target T1, Caspase-3 (Mus musculus). Particulars: 2.5 uM. The source holds these as a separate data set.
Description: Activation of procaspase-3 in mouse K7M2 cells assessed as increase in cell death by measuring combination index at 2.5 uM after 24 hrs in presence of 10 nM doxorubucin by alamar blue assay
The target in data set [51] is T1, Caspase-3 (Mus musculus). Particulars: EL4, 10 uM. This is another data set of the same source.
Description: Activation of procaspase-3 in mouse EL4 cells assessed as increase in cell death by measuring combination index at 10 uM after 24 hrs in presence of 2500 nM doxorubucin by alamar blue assay
In data set [52] the target is T1, Caspase-3 (Mus musculus). The note with it: 5 uM. This is another data set of the same source.
Description: Activation of procaspase-3 in mouse K7M2 cells assessed as increase in cell death by measuring combination index at 5 uM after 24 hrs in presence of 100 nM doxorubucin by alamar blue assay
In data set [53] the target is T1, Caspase-3 (Mus musculus). The note with it: 7.5 uM. This is another data set of the same source.
Description: Activation of procaspase-3 in mouse 3LL cells assessed as increase in cell death by measuring combination index at 7.5 uM after 24 hrs in presence of 250 nM doxorubucin by alamar blue assay
Data set [54] has as its target T1, Caspase-3 (Mus musculus). Particulars: 5 uM. The source holds these as a separate data set.
Description: Activation of procaspase-3 in mouse K7M2 cells assessed as increase in cell death by measuring combination index at 5 uM after 24 hrs in presence of 10 nM doxorubucin by alamar blue assay
The subject of data set [55] is HL-60. In words: Cytotoxicity against human HL60 cells. In kind it is functional, cell-based.
Another data set relates to OVCAR-8. In words: Cytotoxicity against human OVCAR8 cells. In kind it is functional, cell-based.
The subject of another data set is HCT-8. In words: Cytotoxicity against human HCT8 cells. In kind it is functional, cell-based.

Muscarinic acetylcholine receptor M3, sequence (P08483 whole entry): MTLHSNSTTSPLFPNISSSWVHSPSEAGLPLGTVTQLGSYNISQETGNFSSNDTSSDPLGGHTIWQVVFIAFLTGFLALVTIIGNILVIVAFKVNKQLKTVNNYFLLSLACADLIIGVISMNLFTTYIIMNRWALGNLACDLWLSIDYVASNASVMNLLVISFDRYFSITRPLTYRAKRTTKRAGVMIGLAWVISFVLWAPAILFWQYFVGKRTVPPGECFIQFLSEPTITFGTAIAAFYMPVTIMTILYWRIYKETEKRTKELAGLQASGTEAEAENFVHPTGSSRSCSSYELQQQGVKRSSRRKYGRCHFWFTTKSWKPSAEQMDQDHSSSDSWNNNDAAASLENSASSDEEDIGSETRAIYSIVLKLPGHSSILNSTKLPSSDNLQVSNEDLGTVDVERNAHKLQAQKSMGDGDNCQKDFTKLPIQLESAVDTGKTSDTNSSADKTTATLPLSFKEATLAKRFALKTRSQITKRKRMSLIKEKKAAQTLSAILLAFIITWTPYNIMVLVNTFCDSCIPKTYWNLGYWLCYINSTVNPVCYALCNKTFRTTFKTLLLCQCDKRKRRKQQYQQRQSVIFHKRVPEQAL

`COc1cccc2c1C(=O)c1c(O)c3c(c(O)c1C2=O)C[C@@](O)(/C(CO)=N/NC(=O)CCCCCN1C(=O)C=CC1=O)C[C@@H]3OC1C[C@H](N)[C@H](O)[C@H](C)O1` (stereo partly drawn) yielded a half-life in [1] of 20.1 to 21.1 h.

With `O=C(N/N=C/c1ccccc1B(O)O)c1ccncc1`, the remaining at 10 h, 100 µM in [2] was above 93%.

With `O=C(N/N=C/c1cccs1)c1ccc2c(c1)OCO2`, the IC50 in the data set on Thoracic aorta is 74000 nM.

In the data set on HL-60 [3], `COc1cc(C(=O)N(C)/N=C/c2ccccc2)cc(OC)c1OC` gave an IC50 of 30 nM.

For the molecule `O=C(N/N=C/c1ccsc1)c1ccc2c(c1)OCO2`, the IC50 in data set [4] came out at 350 nM.

For `C=CCc1cccc(/C=N/NC(=O)CN2CCN(Cc3ccccc3)CC2)c1O`, the CI is 0.17 to 79.6 on Caspase-3 (Mus musculus) [5]; 0.89 to 12.2 at Caspase-3 (Mus musculus) [6]; 1.38 to 11.7 on Caspase-3 (Mus musculus) [7]; 0.67 to 55.9 on Caspase-3 (Mus musculus) [8]; 0.76 to 18.2 on Caspase-3 (Mus musculus) [9]; 0.66 to 28.1 on Caspase-3 (Mus musculus) [10]. Also, the CI on Caspase-3 (Mus musculus) [11] is 0.66 to 17.8; at Caspase-3 (Mus musculus) [12] it was 0.63 to 38; at Caspase-3 (Mus musculus) [13], 0.69 to 27.7; at Caspase-3 (Mus musculus) [14], 0.86 to 24.1; on Caspase-3 (Mus musculus) [15], 0.53 to 40.7; on Caspase-3 (Mus musculus) [16], 0.74 to 23.3. For the same molecule, the CI lay within 0.41 to 32.3 on Caspase-3 (Mus musculus) [17]; 0.53 to 37 on Caspase-3 (Mus musculus) [18]; 0.88 to 16.7 on Caspase-3 (Mus musculus) [19]; 0.81 to 23.1 at Caspase-3 (Mus musculus) [20]; 0.84 to 15.2 on Caspase-3 (Mus musculus) [21]; 0.84 to 23.9 on Caspase-3 (Mus musculus) [22]. Besides, the CI is 0.93 to 39.6 at Caspase-3 (Mus musculus) [23]; 0.72 to 20.3 at Caspase-3 (Mus musculus) [24]; 0.32 to 66.8 at Caspase-3 (Mus musculus) [25]; 0.47 to 49.7 at Caspase-3 (Mus musculus) [26]; 0.36 to 27.8 on Caspase-3 (Mus musculus) [27]; 0.37 to 46.7 on Caspase-3 (Mus musculus) [28]. In addition, the CI at Caspase-3 (Mus musculus) [29] was in the range of 0.84 to 21.5; at Caspase-3 (Mus musculus) [30], 0.84 to 20.1; at Caspase-3 (Mus musculus) [31], 0.86 to 28; on Caspase-3 (Mus musculus) [32], 0.39 to 62.2; on Caspase-3 (Mus musculus) [33], 0.79 to 30.3; on Caspase-3 (Mus musculus) [34], 0.95 to 15.5. Moreover, the CI on Caspase-3 (Mus musculus) [35] lay in the range of 0.73 to 26.6; on Caspase-3 (Mus musculus) [36], 0.83 to 22.5; at Caspase-3 (Mus musculus) [37], 0.42 to 58.2; on Caspase-3 (Mus musculus) [38], 0.42 to 57.2; at Caspase-3 (Mus musculus) [39], 0.65 to 31; on Caspase-3 (Mus musculus) [40], 0.71 to 28.9. Besides, the CI was in the range of 0.9 to 18.2 on Caspase-3 (Mus musculus) [41]; 0.61 to 26.8 on Caspase-3 (Mus musculus) [42]; 0.44 to 41.3 on Caspase-3 (Mus musculus) [43]; 0.72 to 29 at Caspase-3 (Mus musculus) [44]; 0.48 to 55.7 at Caspase-3 (Mus musculus) [45]; 0.79 to 15 at Caspase-3 (Mus musculus) [46]. For the same molecule, the CI on Caspase-3 (Mus musculus) [47] lay in the range of 0.77 to 24; at Caspase-3 (Mus musculus) [48] it was 0.54 to 18.3; at Caspase-3 (Mus musculus) [49], 0.3 to 55.6; at Caspase-3 (Mus musculus) [50] it was 0.97 to 12.8; on Caspase-3 (Mus musculus) [51] it was 0.21 to 61.4; at Caspase-3 (Mus musculus) [52], 0.49 to 42.8. For the same molecule, the CI on Caspase-3 (Mus musculus) [53] lay in the range of 0.28 to 86.3; on Caspase-3 (Mus musculus) [54], 0.56 to 26.4.

As for `COc1cc(C(=O)N/N=C/c2cc3ccccc3s2)cc(OC)c1OC`, the concentration for half-maximal inhibition (IC50) with HL-60 [55] was 0.4 nM; in the data set on OVCAR-8, 9 nM; in the data set with HCT-8, 5 nM.
